# Laboratory results as given in patent US5798391A, “Injectable solution of benzalkonium fluoride” (Aromafarm Limited, priority 1994, dated 1998).
# Like-named read-outs stand apart in the source and are kept apart here.
# How the values were obtained:
# [1] = tested on: HERPES SIMPLEX VIRUS TYPE 1; assay: virucidal activity of BKF, AFNOR T72-180, molecular screening (Table 4); type: cell-based, Herpes Simplex Virus Type 1 (HSV 1); settings: 32° C.
# Carre's disease = assay: treatment of dogs suffering from Carre's disease; type: in vivo, dog
# Protocol: The invention was used to treat dogs suffering from Carre's disease. This disease, considered fatal and without treatment, is due to an ultravirus.
# Twelve dogs were treated with one 10 ml ampoule of benzalkonium fluoride solution at 2.1 g/l for 20 kg of animal. The injection was given once per day for three days. The dogs also had associated treatment (vitamins, antibiotics, vaccines, etc.).
# HIV-1 virus (LAI strain) [2] = assay: residual infectiousness of treated HIV-1 on activated human lymphocytes, antigen P25 ELISA; type: cell-based, HIV-1 (LAI strain); settings: 1/2 dilutions, REV7 (30 min) and REV8 (60 min) (FIG. 4)
# [3] = tested on: HERPES SIMPLEX VIRUS TYPE 2; assay: virucidal activity of BKF, AFNOR T72-180, molecular screening (Table 5); type: cell-based, Herpes Simplex Virus Type 2 (HSV 2); settings: 32° C.
# HIV-1 virus (LAI strain) [4] = assay: residual infectiousness of treated HIV-1 on activated human lymphocytes, reverse transcriptase activity; type: cell-based, HIV-1 (LAI strain)
# [5] = tested on: mycobacterium tuberculosis (wild strain); assay: activity in vitro on mycobacterium tuberculosis, B[…] medium surface impregnation method; type: cell-based; parameters: key to culture of Bacterium Tuberculosis: (+++): positive culture; (-): negative culture
# Protocol: We determined the activity in vitro of benzalkonium fluoride on the mycobacterium tuberculosis (wild strain).
# This experiment was carried out with the B[…] medium surface impregnation method. The quantity of active substance absorbed by the medium is expressed in cm^2.
# The volume of the appropriate dilution of benzalkonium fluoride was 0.25 ml per tube of medium in order to arrive at concentrations of benzalkonium fluoride of 0.1, 0.2 and 0.3% per cm^2 surface of B[…] medium.
# A control tube, without benzalkonium fluoride, was used for each of the series.
# Three series of tests were carried out with dilutions of 0.1, 0.01 and 0.001 of the mother solution of the Bacterium Tuberculosis strain prepared at 1 mg/ml.
# All the tests were carried out in double.
# E[…] 1 = type: cell-based, polio enterovirus 1, SABIN strain; settings: 32° C.
# [6] = tested on: activated human PBMC lymphocytes; assay: toxicity of residual BKF (sample REV4) on infectiousness test cells; type: cell-based; settings: REV4: BKF 20 μg/ml diluted in NTE buffer and centrifuged
# guinea pigs = assay: LD 50, unique administration, Behrens and Karber method, guinea pigs; type: in vivo, albino guinea pig
# Protocol: The high toxicity of benzalkonium fluoride in unique administration in mice and guinea pigs was determined by the Behrens and Karber method, by intracardiac, intravenous and intraperitoneal injection. The animals used were young adult albino mice and albino guinea pigs. Ten animals were used for each dose administered, five males and five females. The benzalkonium fluoride was used in a 3 g/l isotonic solution of sterile apyrogenic sodium chloride. We observed the animals for 7 days after unique administration carried out using a sterile needle adapted to a syringe graduated in 1/10 ml to allow the treatment of each animal with an exact dose. The animals were weighed each day during the observation period.
# The LD 50 (lethal dose 50) was determined.
# guinea pig blood = assay: in vitro haemolysis of total blood, guinea pig
# dogs (beagles) = settings: dog, in vivo
# patient's blood = assay: haemolytic concentration on AIDS patients' blood before injection; settings: solution used 2.1 g/l
# human blood = assay: in vitro haemolysis of total blood, human
# [7] = in vitro haemolysis of total blood, human; settings: human, blood
compound,measurement,setting,value
"CCCCCCCCCCCCCC[N+](C)(C)Cc1ccccc1.[F-] [benzalkonium fluoride, tetradecyl-dimethyl-benzyl-ammonium fluoride]",virucidal activity: minimal contact time,[1]; 0.01% (m/V),5 min
same,Viral Titration,"[1]; 0.01% (m/V), 30 minutes",0 PFU/ml
same,Viral Titration,"[1]; 0.01% (m/V), 60 minutes",0 PFU/ml
same,Viral Titration,"[1]; 0.01% (m/V), 120 minutes",0 PFU/ml
same,Viral Titration,"[1]; 0.02% (m/V), 15 minutes",0 PFU/ml
same,Viral Titration,"[1]; 0.02% (m/V), 30 minutes",0 PFU/ml
same,Viral Titration,"[1]; 0.02% (m/V), 60 minutes",0 PFU/ml
same,Viral Titration,"[1]; 0.02% (m/V), 120 minutes",0 PFU/ml
same,virucidal activity: minimal concentration (reduction by logarithmic factor of at least 4),[1]; 5 minutes contact,0.01 % (m/V)
same,dogs with nervous symptoms,"Carre's disease; five other dogs, generalised trembling",could not be treated
same,dogs saved,"Carre's disease; of twelve dogs, 10 ml of 2.1 g/l per 20 kg once per day, three days, associated treatment",effective for seven dogs who were saved
same,total recovery,Carre's disease; seven dogs saved,18 days
same,antigen P25 in lymphocyte supernatants,HIV-1 virus (LAI strain) [2],negative
same,virucidal activity: minimal contact time,[3]; 0.01% (m/V),15 min
same,Viral Titration,"[3]; 0.01% (m/V), 60 minutes",0 PFU/ml
same,Viral Titration,"[3]; 0.01% (m/V), 120 minutes",0 PFU/ml
same,Viral Titration,"[3]; 0.02% (m/V), 15 minutes",0 PFU/ml
same,Viral Titration,"[3]; 0.02% (m/V), 30 minutes",0 PFU/ml
same,Viral Titration,"[3]; 0.02% (m/V), 60 minutes",0 PFU/ml
same,Viral Titration,"[3]; 0.02% (m/V), 120 minutes",0 PFU/ml
same,virucidal activity: minimal concentration (reduction by logarithmic factor of at least 4),[3]; 15 minutes contact,0.01 % (m/V)
same,RT activity in culture supernatants,"HIV-1 virus (LAI strain) [4]; 1/2 dilution of virus treated with BKF, second experiment (FIG. 2)",No RT activity was detected
same,reverse transcriptase activity in culture supernatants,HIV-1 virus (LAI strain) [4]; 1/10 dilution of virus treated with BKF 20 μg/ml for 30 or 60 minutes (FIG. 1),no reverse transcriptase activity is revealed
same,log reduction at 20 µg/mL,"HIV-1 virus (LAI strain) [4]; Human immunodeficiency virus 1, Lymphocyte, 20 μg/ml, activated human lymphocytes, read-out: loss of infectious capacity in the HIV-1 virus",5
same,inhibition of the culture,"[5]; 0.1, 0.2 and 0.3% per cm^2, dilutions 0.1, 0.01 and 0.001, four weeks at 37° C.",an inhibition of the culture
same,culture of Bacterium Tuberculosis,"[5]; BKF 0.1%/cm^2, BK dilution 0.001, in double",(-)
same,culture of Bacterium Tuberculosis,"[5]; BKF 0.1%/cm^2, BK dilution 0.01, in double",(-)
same,culture of Bacterium Tuberculosis,"[5]; BKF 0.1%/cm^2, BK dilution 0.1, in double",(-)
same,culture of Bacterium Tuberculosis,"[5]; BKF 0.2%/cm^2, BK dilution 0.001, in double",(-)
same,culture of Bacterium Tuberculosis,"[5]; BKF 0.2%/cm^2, BK dilution 0.01, in double",(-)
same,culture of Bacterium Tuberculosis,"[5]; BKF 0.2%/cm^2, BK dilution 0.1, in double",(-)
same,culture of Bacterium Tuberculosis,"[5]; BKF 0.3%/cm^2, BK dilution 0.001, in double",(-)
same,culture of Bacterium Tuberculosis,"[5]; BKF 0.3%/cm^2, BK dilution 0.01, in double",(-)
same,culture of Bacterium Tuberculosis,"[5]; BKF 0.3%/cm^2, BK dilution 0.1, in double",(-)
same,virucidal activity: minimal contact time,E[…] 1; 0.01% (m/V),30 min
same,Viral Titration,"E[…] 1; 0.01% (m/V), 30 minutes",0 PFU/ml
same,Viral Titration,"E[…] 1; 0.01% (m/V), 60 minutes",0 PFU/ml
same,Viral Titration,"E[…] 1; 0.01% (m/V), 120 minutes",0 PFU/ml
same,Viral Titration,"E[…] 1; 0.02% (m/V), 120 minutes",0 PFU/ml
same,virucidal activity: minimal concentration (reduction by logarithmic factor of at least 4),E[…] 1; 30 minutes contact,0.01 % (m/V)
same,toxicity for the infectiousness test cells,[6],not toxic
same,LD 50,"guinea pigs; female guinea pig, intracardiac",16.50 mg/mL
same,LD 50,"guinea pigs; female guinea pig, intraperitoneal",20.50 mg/mL
same,LD 50,"guinea pigs; male guinea pig, intracardiac",15.50 mg/mL
same,LD 50,"guinea pigs; male guinea pig, intraperitoneal",28.50 mg/mL
same,haemolysis (degree of red colouring),guinea pig blood; 37.5 ppm or mg/l,0
same,haemolysis (degree of red colouring),guinea pig blood; 75 ppm or mg/l,+
same,haemolysis (degree of red colouring),guinea pig blood; 150 ppm or mg/l,++++
same,"blood in the urine, male",dogs (beagles),a high level of blood in the urine
same,"blood in urine from bladder, male",dogs (beagles),no trace of blood
same,"blood in urine, male",dogs (beagles),absence of blood
same,"glucose in urine, male",dogs (beagles),absence of glucose
same,"haemolysis in urine samples, female",dogs (beagles),no signs of h.ae butted.molysis
same,histological examination of the various organs,dogs (beagles),no alteration due to treatment
same,"ketonic bodies in urine, male",dogs (beagles),traces of ketonic bodies
same,number of leukocytes,dogs (beagles),increased
same,"proteins in urine, male",dogs (beagles),traces of proteins
same,"urine sodium and potassium, female",dogs (beagles),remained almost stable
same,"urine sodium and potassium, male",dogs (beagles),showed variations
same,haemolytic concentration on patient's blood,patient's blood,well above that of the solution used
same,haemolysis,"human blood; 37.5 mg/l, man, guinea pig and rabbit blood",Not having noted h.ae butted.molysis
same,haemolysis (degree of red colouring),"human blood; 20 ppm or mg/l, 6 samples",0
same,haemolysis (degree of red colouring),"human blood; 35 ppm or mg/l, 6 samples",0
same,haemolysis (degree of red colouring),human blood; 37.5 ppm or mg/l,0
same,haemolysis (degree of red colouring),human blood; 75 ppm or mg/l,+
same,haemolysis (degree of red colouring),human blood; 150 ppm or mg/l,++
same,MNTC,[7],≤ 20 µg/mL
same,toxicity threshold (D.L.0),"VERO, KB and MCR-5 cells; after filtration",0.01%
same,toxicity threshold (D.L.0),"VERO, KB and MCR-5 cells; before filtration",0.05%
